Measurements reported in patent publication US11447475B2, “Isoxazole N-linked carbamoyl cyclohexyl acids as LPA antagonists” (BRISTOL-MYERS SQUIBB COMPANY, priority 2017, dated 2022).

target: T1, human LPA1 (Homo sapiens, UniProt Q92633); experiment: LPA1 functional antagonist assay (calcium flux); type: cell-based; conditions: CHO cells overexpressing human LPA1; inhibition of calcium flux induced by 10 nM LPA; read-out: hLPA1 IC50
T1 construct: expressed in transfected cells; host or cells: Chinese hamster ovary (CHO) cells
Protocol: The effectiveness of compounds of the present invention as LPA1 inhibitors can be determined in an LPA1 functional antagonist assay as follows:
Chinese hamster ovary cells overexpressing human LPA1 were plated overnight (15,000 cells/well) in poly-D-lysine coated 384-well microplates (Greiner bio-one, Cat #781946) in DMEM/F12 medium (Gibco, Cat #11039). Following overnight culture, cells were loaded with calcium indicator dye (AAT Bioquest Inc, Cat #34601) for 30 minutes at 37° C. The cells were then equilibrated to room temperature for 30 minutes before the assay. Test compounds solubilized in DMSO were transferred to 384 well non-binding surface plates (Corning, Cat #3575) using the Labcyte Echo acoustic dispense and diluted with assay buffer [1×HBSS with calcium/magnesium (Gibco Cat #14025-092), 20 mM HEPES (Gibco Cat #15630-080) and 0.1% fatty acid free BSA (Sigma Cat #A9205)] to a final concentration of 0.5% DMSO. Diluted compounds were added to the cells by FDSS6000 (Hamamatsu) at final concentrations ranging from 0.08 nM to 5 μM. and were then incubated for 20 min at room temperature at which time LPA (Avanti Polar Lipids Cat #857130C) was added at final concentrations of 10 nM to stimulate the cells. […] IC50 values were determined by fitting data to a 4-parameter logistic equation (GraphPad Prism, San Diego Calif.).

T1 sequence (Q92633 whole entry): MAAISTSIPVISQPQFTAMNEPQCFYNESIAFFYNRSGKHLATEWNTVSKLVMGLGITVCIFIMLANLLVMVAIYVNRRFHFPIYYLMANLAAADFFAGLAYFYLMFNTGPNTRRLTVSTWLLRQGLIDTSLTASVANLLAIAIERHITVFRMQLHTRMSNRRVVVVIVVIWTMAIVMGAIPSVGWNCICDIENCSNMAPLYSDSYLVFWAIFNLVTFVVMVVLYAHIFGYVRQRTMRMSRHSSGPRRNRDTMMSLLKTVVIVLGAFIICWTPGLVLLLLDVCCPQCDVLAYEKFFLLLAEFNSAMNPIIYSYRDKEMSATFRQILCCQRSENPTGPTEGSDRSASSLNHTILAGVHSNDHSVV

IC50	SMILES
27 nM	Cc1noc(-c2ccc(O[C@H]3CCC[C@H](C(=O)O)C3)cn2)c1CNC(=O)OCc1cc(F)cc(F)c1 [Example 37, (1S,3S)-3-((6-(4-(((((3,5-difluorobenzyl)oxy)carbonyl)amino)methyl)-3-methylisoxazol-5-yl)pyridin-3-yl)oxy)cyclohexane-1-carboxylic Acid]

same assay, conditions: read-out: hLPA1 IC50

SMILES	IC50
Cc1noc(-c2ccc(O[C@H]3CCC[C@H](C(=O)O)C3)cc2)c1CNC(=O)OCc1cccc(Cl)c1 [Example 11]	197 nM
Cc1noc(-c2ccc(O[C@H]3CCC[C@H](C(=O)O)C3)cc2)c1CN(C)C(=O)OCc1ccccc1 [Example 13]	63 nM
Cc1noc(-c2ccc(O[C@@H]3CCC[C@@H](C(=O)O)C3)cc2)c1CNC(=O)OCc1ccc(F)cc1 [Example 18]	159 nM
Cc1noc(-c2ccc(O[C@@H]3CCC[C@@H](C(=O)O)C3)cc2)c1CNC(=O)OCc1ccccc1F [Example 19]	152 nM
Cc1noc(-c2ccc(O[C@@H]3CCC[C@@H](C(=O)O)C3)cc2)c1CNC(=O)OCc1ccccc1Cl [Example 20]	244 nM
Cc1noc(-c2ccc(O[C@@H]3CCC[C@@H](C(=O)O)C3)cc2)c1CNC(=O)OCCC1CC1 [Example 28]	263 nM
Cc1noc(-c2ccc(O[C@H]3CCC[C@H](C(=O)O)C3)cn2)c1CNC(=O)NCc1ccccc1 [Example 35, (1S,3S)-3-((6-(4-((3-benzylureido)methyl)-3-methylisoxazol-5-yl)pyridin-3-yl)oxy)cyclohexane-1-carboxylic Acid]	229 nM
CCCCCCOC(=O)NCc1c(C)noc1-c1ccc(O[C@H]2CCC[C@H](C(=O)O)C2)cn1 [Example 36, (1S,3S)-3-((6-(4-((((hexyloxy)carbonyl)amino)methyl)-3-methylisoxazol-5-yl)pyridin-3-yl)oxy)cyclohexane-1-carboxylic Acid]	46 nM
Cc1noc(-c2ccc(O[C@H]3CCC[C@H](C(=O)O)C3)cn2)c1CNC(=O)OC1CCCC1 [Example 38]	63 nM
Cc1nc(-c2onc(C)c2CNC(=O)OCC(C)C)ccc1O[C@H]1CCC[C@H](C(=O)O)C1 [Example 39]	37 nM
Cc1nc(-c2onc(C)c2CN(C)C(=O)OCC(C)C)ccc1O[C@H]1CCC[C@H](C(=O)O)C1 [Example 40]	34 nM
COCCOC(=O)NCc1c(C)noc1-c1ccc(O[C@H]2CCC[C@H](C(=O)O)C2)c(C)n1 [Example 46]	275 nM

Second part, the molecule after the results:

IC50	SMILES
2.77 nM	Cc1noc(-c2ccc(O[C@H]3CCC[C@H](C(=O)O)C3)cc2)c1CNC(=O)OCc1ccc(Cl)cc1 [Example 12]
30 nM	Cc1noc(-c2ccc(O[C@H]3CCC[C@H](C(=O)O)C3)cn2)c1NC(=O)O[C@H](C)C1CC1 [Example 34, (1S,3S)-3-((6-(4-((((R)-1-cyclopropylethoxy)carbonyl)amino)-3-methylisoxazol-5-yl)pyridin-3-yl)oxy)cyclohexane-1-carboxylic Acid]
20 nM	CCCOC(=O)NCc1c(C)noc1-c1ccc(O[C@H]2CCC[C@H](C(=O)O)C2)c(C)n1 [Example 41]
8 nM	CCCCOC(=O)NCc1c(C)noc1-c1ccc(O[C@H]2CCC[C@H](C(=O)O)C2)c(C)n1 [Example 42]
8 nM	CCCCCOC(=O)NCc1c(C)noc1-c1ccc(O[C@H]2CCC[C@H](C(=O)O)C2)c(C)n1 [Example 43]
6 nM	CCCCCCOC(=O)NCc1c(C)noc1-c1ccc(O[C@H]2CCC[C@H](C(=O)O)C2)c(C)n1 [Example 44]
30 nM	Cc1nc(-c2onc(C)c2CNC(=O)OC(C)C)ccc1O[C@H]1CCC[C@H](C(=O)O)C1 [Example 47]
5 nM	Cc1nc(-c2onc(C)c2CNC(=O)OCc2ccccc2)ccc1O[C@H]1CCC[C@H](C(=O)O)C1 [Example 48]
6 nM	Cc1nc(-c2onc(C)c2CN(C)C(=O)OCc2ccccc2)ccc1O[C@H]1CCC[C@H](C(=O)O)C1 [Example 49, (1S,3S)-3-((6-(4-((((Benzyloxy)carbonyl)(methyl)amino)methyl)-3-methyl-isoxazol-5-yl)-2-methylpyridin-3-yl)oxy)cyclohexanecarboxylic Acid]
